Values of other authors as cited in US12151031B2, “Topical copper tripeptide composition” (YUVAN RESEARCH, INC., priority 2018, dated 2024).

Settings: in vivo

**Q.** With “glycyl-histidyl-lysin tripeptide in the form of its Cu Complex [GHK-Cu]” as the substance, how does the Elimination half-life read?
**A.** 1.5 to 2 h
